{"source": "PubChem BioAssay AID2060607", "about": "(Molecular Pharmacology Branch, DTP, NCI, 2025)", "test_system": "876862-298-R-J1-PDC complex spheroids, viability % test/control", "assay": "Anticancer human tumor 876862-298-R-J1-PDC patient-derived endometrial carcinoma cell line growth inhibition [CLK]", "conditions": "for viability, T/C: stronger effect = lower value", "method_in_brief": "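Patient-derived tumor cells grown as complex spheroids with HUVEC endothelial cells and mesenchymal stem cells, treated with drug combinations. Concentrations descend in half-log steps from near clinical Cmax, or from 10 microM if Cmax unknown.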", "key": {"[1]": {"conditions": "curve of first compound, second compound 0.0316 µM"}, "[2]": {"conditions": "curve of first compound, second compound 0.1 µM"}, "[3]": {"conditions": "curve of first compound, second compound 0.316 µM"}, "[4]": {"conditions": "curve of first compound, second compound 1 µM"}, "[5]": {"conditions": "curve of first compound, second compound 3.16 µM"}, "[6]": {"conditions": "curve of first compound, second compound 10 µM"}, "[7]": {"conditions": "second compound 0.0316 µM, first compound 0.0316 µM"}, "[8]": {"conditions": "second compound 0.0316 µM, first compound 0.1 µM"}, "[9]": {"conditions": "second compound 0.1 µM, first compound 0.0316 µM"}, "[10]": {"conditions": "second compound 0.1 µM, first compound 0.1 µM"}, "[11]": {"conditions": "second compound 0.316 µM, first compound 0.0316 µM"}, "[12]": {"conditions": "second compound 0.316 µM, first compound 0.1 µM"}, "[13]": {"conditions": "second compound 1 µM, first compound 0.0316 µM"}, "[14]": {"conditions": "second compound 1 µM, first compound 0.1 µM"}, "[15]": {"conditions": "second compound 3.16 µM, first compound 0.0316 µM"}, "[16]": {"conditions": "second compound 3.16 µM, first compound 0.1 µM"}, "[17]": {"conditions": "second compound 10 µM, first compound 0.0316 µM"}, "[18]": {"conditions": "second compound 10 µM, first compound 0.1 µM"}}, "note": "“And” between values parts separate entries of the source, which are not always exact repeats. Equal entries are not always repeated."}
{"compound": "Nc1ccccc1NC(=O)c1ccc(CNC(=O)OCc2cccnc2)cc1", "note": "+ CNC(=O)c1ccc(Nc2nc(OC3CCCC3)c3c(-c4ccc5nc(C)oc5c4)c[nH]c3n2)c(OC)c1;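 further: spheroids exposed to drugs for 7 days before readout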;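 on viability, T/C: 100% = DMSO vehicle control wells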", "values": [{"measurement": "IC50", "setting": "[1]", "result": 3.67, "unit": "µM"}, {"measurement": "IC50", "setting": "[2]", "result": 1.07, "unit": "µM"}, {"measurement": "IC50", "setting": "[3]", "result": "< 0.0316", "unit": "µM"}, {"measurement": "IC50", "setting": "[4]", "result": "< 0.0316", "unit": "µM"}, {"measurement": "IC50", "setting": "[5]", "result": "< 0.0316", "unit": "µM"}, {"measurement": "IC50", "setting": "[6]", "result": "< 0.0316", "unit": "µM"}, {"measurement": "viability, T/C", "setting": "[7]", "result": 71.4, "unit": "%"}, {"measurement": "viability, T/C", "setting": "[8]", "result": 88.4, "unit": "%"}, {"measurement": "viability, T/C", "setting": "second compound 0.0316 µM, first compound 0.316 µM", "result": 82.8, "unit": "%"}, {"measurement": "viability, T/C", "setting": "second compound 0.0316 µM, first compound 1 µM", "result": 80.6, "unit": "%"}, {"measurement": "viability, T/C", "setting": "second compound 0.0316 µM, first compound 3.16 µM", "result": 53.1, "unit": "%"}, {"measurement": "viability, T/C", "setting": "second compound 0.0316 µM, first compound 10 µM", "result": 29.2, "unit": "%"}, {"measurement": "viability, T/C", "setting": "[9]", "result": 46.3, "unit": "%"}, {"measurement": "viability, T/C", "setting": "[10]", "result": 45.3, "unit": "%"}, {"measurement": "viability, T/C", "setting": "second compound 0.1 µM, first compound 0.316 µM", "result": 62.3, "unit": "%"}, {"measurement": "viability, T/C", "setting": "second compound 0.1 µM, first compound 1 µM", "result": 50.2, "unit": "%"}, {"measurement": "viability, T/C", "setting": "second compound 0.1 µM, first compound 3.16 µM", "result": 39.4, "unit": "%"}, {"measurement": "viability, T/C", "setting": "second compound 0.1 µM, first compound 10 µM", "result": 24.9, "unit": "%"}, {"measurement": "viability, T/C", "setting": "[11]", "result": 41.2, "unit": "%"}, {"measurement": "viability, T/C", "setting": "[12]", "result": 43.8, "unit": "%"}, {"measurement": "viability, T/C", "setting": "second compound 0.316 µM, first compound 0.316 µM", "result": 44.7, "unit": "%"}, {"measurement": "viability, T/C", "setting": "second compound 0.316 µM, first compound 1 µM", "result": 40.9, "unit": "%"}, {"measurement": "viability, T/C", "setting": "second compound 0.316 µM, first compound 3.16 µM", "result": 27.3, "unit": "%"}, {"measurement": "viability, T/C", "setting": "second compound 0.316 µM, first compound 10 µM", "result": 16.9, "unit": "%"}, {"measurement": "viability, T/C", "setting": "[13]", "result": 33.4, "unit": "%"}, {"measurement": "viability, T/C", "setting": "[14]", "result": 31.7, "unit": "%"}, {"measurement": "viability, T/C", "setting": "second compound 1 µM, first compound 0.316 µM", "result": 32.5, "unit": "%"}, {"measurement": "viability, T/C", "setting": "second compound 1 µM, first compound 1 µM", "result": 27.1, "unit": "%"}, {"measurement": "viability, T/C", "setting": "second compound 1 µM, first compound 3.16 µM", "result": 15.7, "unit": "%"}, {"measurement": "viability, T/C", "setting": "second compound 1 µM, first compound 10 µM", "result": 9.26, "unit": "%"}, {"measurement": "viability, T/C", "setting": "[15]", "result": 25, "unit": "%"}, {"measurement": "viability, T/C", "setting": "[16]", "result": 22.5, "unit": "%"}, {"measurement": "viability, T/C", "setting": "second compound 3.16 µM, first compound 0.316 µM", "result": 22.5, "unit": "%"}, {"measurement": "viability, T/C", "setting": "second compound 3.16 µM, first compound 1 µM", "result": 16.1, "unit": "%"}, {"measurement": "viability, T/C", "setting": "second compound 3.16 µM, first compound 3.16 µM", "result": 12.1, "unit": "%"}, {"measurement": "viability, T/C", "setting": "second compound 3.16 µM, first compound 10 µM", "result": 2.17, "unit": "%"}, {"measurement": "viability, T/C", "setting": "[17]", "result": 21, "unit": "%"}, {"measurement": "viability, T/C", "setting": "[18]", "result": 22.2, "unit": "%"}, {"measurement": "viability, T/C", "setting": "second compound 10 µM, first compound 0.316 µM", "result": 16.6, "unit": "%"}, {"measurement": "viability, T/C", "setting": "second compound 10 µM, first compound 1 µM", "result": 15.7, "unit": "%"}, {"measurement": "viability, T/C", "setting": "second compound 10 µM, first compound 3.16 µM", "result": 10, "unit": "%"}, {"measurement": "viability, T/C", "setting": "second compound 10 µM, first compound 10 µM", "result": 0.74, "unit": "%"}]}
{"compound": "Cn1ncnc1[C@H]1c2n[nH]c(=O)c3cc(F)cc(c23)N[C@@H]1c1ccc(F)cc1", "note": "+ CN1CCN(c2cc(C(=O)Nc3cc4cc(-c5cnn(C)c5)ccc4cn3)ccn2)CC1", "values": [{"measurement": "IC50", "setting": "[1]", "result": "> 0.1", "unit": "µM"}, {"measurement": "IC50", "setting": "[2]", "result": "< 0.000316", "unit": "µM"}, {"measurement": "IC50", "setting": "[3]", "result": "< 0.000316", "unit": "µM"}, {"measurement": "IC50", "setting": "[4]", "result": "< 0.000316", "unit": "µM"}, {"measurement": "IC50", "setting": "[5]", "result": "< 0.000316", "unit": "µM"}, {"measurement": "IC50", "setting": "[6]", "result": "< 0.000316", "unit": "µM"}, {"measurement": "viability, T/C", "setting": "second compound 0.0316 µM, first compound 0.000316 µM", "result": 94.8, "unit": "%"}, {"measurement": "viability, T/C", "setting": "second compound 0.0316 µM, first compound 0.001 µM", "result": 81.4, "unit": "%"}, {"measurement": "viability, T/C", "setting": "second compound 0.0316 µM, first compound 0.00316 µM", "result": 89.7, "unit": "%"}, {"measurement": "viability, T/C", "setting": "second compound 0.0316 µM, first compound 0.01 µM", "result": 87, "unit": "%"}, {"measurement": "viability, T/C", "setting": "[7]", "result": 99.8, "unit": "%"}, {"measurement": "viability, T/C", "setting": "[8]", "result": 81.6, "unit": "%"}, {"measurement": "viability, T/C", "setting": "second compound 0.1 µM, first compound 0.000316 µM", "result": 44.7, "unit": "%"}, {"measurement": "viability, T/C", "setting": "second compound 0.1 µM, first compound 0.001 µM", "result": 48.4, "unit": "%"}, {"measurement": "viability, T/C", "setting": "second compound 0.1 µM, first compound 0.00316 µM", "result": 44.7, "unit": "%"}, {"measurement": "viability, T/C", "setting": "second compound 0.1 µM, first compound 0.01 µM", "result": 48, "unit": "%"}, {"measurement": "viability, T/C", "setting": "[9]", "result": 43.2, "unit": "%"}, {"measurement": "viability, T/C", "setting": "[10]", "result": 37.9, "unit": "%"}, {"measurement": "viability, T/C", "setting": "second compound 0.316 µM, first compound 0.000316 µM", "result": 2.64, "unit": "%"}, {"measurement": "viability, T/C", "setting": "second compound 0.316 µM, first compound 0.001 µM", "result": 2.72, "unit": "%"}, {"measurement": "viability, T/C", "setting": "second compound 0.316 µM, first compound 0.00316 µM", "result": 2.87, "unit": "%"}, {"measurement": "viability, T/C", "setting": "second compound 0.316 µM, first compound 0.01 µM", "result": 3.16, "unit": "%"}, {"measurement": "viability, T/C", "setting": "[11]", "result": 2.95, "unit": "%"}, {"measurement": "viability, T/C", "setting": "[12]", "result": 2.25, "unit": "%"}, {"measurement": "viability, T/C", "setting": "second compound 1 µM, first compound 0.000316 µM", "result": 0.47, "unit": "%"}, {"measurement": "viability, T/C", "setting": "second compound 1 µM, first compound 0.001 µM", "result": 0.71, "unit": "%"}, {"measurement": "viability, T/C", "setting": "second compound 1 µM, first compound 0.00316 µM", "result": 1, "unit": "%"}, {"measurement": "viability, T/C", "setting": "second compound 1 µM, first compound 0.01 µM", "result": 0.8, "unit": "%"}, {"measurement": "viability, T/C", "setting": "[13]", "result": 0.52, "unit": "%"}, {"measurement": "viability, T/C", "setting": "[14]", "result": 0.74, "unit": "%"}, {"measurement": "viability, T/C", "setting": "second compound 3.16 µM, first compound 0.000316 µM", "result": 0.96, "unit": "%"}, {"measurement": "viability, T/C", "setting": "second compound 3.16 µM, first compound 0.001 µM", "result": 0.86, "unit": "%"}, {"measurement": "viability, T/C", "setting": "second compound 3.16 µM, first compound 0.00316 µM", "result": 0.88, "unit": "%"}, {"measurement": "viability, T/C", "setting": "second compound 3.16 µM, first compound 0.01 µM", "result": 0.88, "unit": "%"}, {"measurement": "viability, T/C", "setting": "[15]", "result": 1.01, "unit": "%"}, {"measurement": "viability, T/C", "setting": "[16]", "result": 0.64, "unit": "%"}, {"measurement": "viability, T/C", "setting": "second compound 10 µM, first compound 0.000316 µM", "result": 0.56, "unit": "%"}, {"measurement": "viability, T/C", "setting": "second compound 10 µM, first compound 0.001 µM", "result": 0.62, "unit": "%"}, {"measurement": "viability, T/C", "setting": "second compound 10 µM, first compound 0.00316 µM", "result": 0.88, "unit": "%"}, {"measurement": "viability, T/C", "setting": "second compound 10 µM, first compound 0.01 µM", "result": 0.76, "unit": "%"}, {"measurement": "viability, T/C", "setting": "[17]", "result": 0.63, "unit": "%"}, {"measurement": "viability, T/C", "setting": "[18]", "result": 0.56, "unit": "%"}]}
{"compound": "CC(Nc1ccc2c(c1)OCCn1cc(N3C(=O)OCC3C(F)F)nc1-2)C(N)=O", "note": "(stereo unspecified)", "values": [{"measurement": "viability, T/C", "setting": "compound 0.0316 µM", "result": "105% and 86.6%"}, {"measurement": "viability, T/C", "setting": "compound 0.1 µM", "result": "81.8% and 90.4%"}, {"measurement": "viability, T/C", "setting": "compound 0.316 µM", "result": "76.5% and 68.3%"}, {"measurement": "viability, T/C", "setting": "compound 1 µM", "result": "72.2% and 51.6%"}, {"measurement": "viability, T/C", "setting": "compound 3.16 µM", "result": "48.5% and 38.3%"}, {"measurement": "viability, T/C", "setting": "compound 10 µM", "result": "27.7% and 22.8%"}, {"measurement": "IC50", "setting": "curve of compound", "result": "2.84 µM and 1.21 µM"}]}
